Legend:
Assay type in all cases: in vivo
[1] = system: rice (Oryza sativa); assay: Test B flooded paddy test plant response
Procedure, shortened: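 2-leaf plants; pots flooded 3 cm above soil; compound added to paddy water; depth maintained. Greenhouse 13–15 d. Visual rating vs controls, 0 (no effect) to 100 (complete control); dash = no result.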

[2] = system: velvetleaf (Abutilon theophrasti); assay: Test B pre-/postemergence plant response
Procedure, shortened: (§1)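 Seeds were sown and sprayed preemergence, while plants at 2 to 18 cm (1- to 4-leaf stage) got postemergence sprays. Compounds were formulated in a non-phytotoxic solvent mixture with surfactant. After 13 to 15 days in a greenhouse, injury was rated visually against untreated controls, 0 (no effect) to 100 (complete control).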

[3] = system: kochia (Kochia scoparia); assay: Test B pre-/postemergence plant response
Procedure, shortened: as §1

[4] = system: johnsongrass (Sorghum halepense); assay: Test B pre-/postemergence plant response
Procedure, shortened: as §1

[5] = system: soybean (Glycine max); assay: Test B pre-/postemergence plant response
Procedure, shortened: as §1

[6] = system: Italian ryegrass (Lolium multiflorum); assay: Test B pre-/postemergence plant response
Procedure, shortened: as §1

[7] = system: morningglory (Ipomoea coccinea); assay: Test B pre-/postemergence plant response
Procedure, shortened: as §1

[8] = system: bermudagrass (Cynodon dactylon); assay: Test B pre-/postemergence plant response
Procedure, shortened: as §1

[9] = system: catchweed bedstraw (Galium aparine); assay: Test B pre-/postemergence plant response; details: Preemergence
Procedure, shortened: as §1

[10] = system: lambsquarters (Chenopodium album); assay: Test B pre-/postemergence plant response
Procedure, shortened: as §1

[11] = system: pigweed (Amaranthus retroflexus); assay: Test B pre-/postemergence plant response; details: Postemergence
Procedure, shortened: as §1

[12] = system: large crabgrass (Digitaria sanguinalis); assay: Test B pre-/postemergence plant response
Procedure, shortened: as §1

[13] = system: goosegrass (Eleusine indica); assay: Test B pre-/postemergence plant response
Procedure, shortened: as §1

[14] = system: giant foxtail (Setaria faberii); assay: Test B pre-/postemergence plant response
Procedure, shortened: as §1

[15] = Postemergence, 16 g ai/ha, scale 0 to 100
[16] = Postemergence, 31 g ai/ha, scale 0 to 100, 0 no effect, 100 complete control
[17] = Postemergence, 62 g ai/ha, scale 0 to 100
[18] = Postemergence, 125 g ai/ha, scale 0 to 100
[19] = Preemergence, 16 g ai/ha, scale 0 to 100 (0 no effect, 100 complete control)
[20] = Preemergence, 31 g ai/ha, 0 to 100 scale, 0 no effect, 100 complete control
[21] = Preemergence, 62 g ai/ha, scale 0 to 100
[22] = Preemergence, 125 g ai/ha, scale 0 to 100

## CCc1cc(-c2ccc(C(F)(F)F)cc2)nn1-c1c(OC(=O)OC(C)C)cnn(C)c1=O [Compound 12]
[1]; Flood (flooded paddy test), 62 g ai/ha, scale 0 to 100, 0 no effect, 100 complete control
  Plant response rating, Rice: 20
[1]; Flood (flooded paddy test), 125 g ai/ha, scale 0 to 100, 0 no effect, 100 complete control
  Plant response rating, Rice: 70
[1]; Flood (flooded paddy test), 250 g ai/ha, scale 0 to 100, 0 no effect, 100 complete control
  Plant response rating, Rice: 80
[1]; Flood, 31 g ai/ha, scale 0 to 100
  Plant response rating, Rice: 0
[2]; [15]
  Plant response rating, Velvetleaf: 0
[2]; [16]
  Plant response rating, Velvetleaf: 0
[2]; [17]
  Plant response rating, Velvetleaf: 0
[2]; [18]
  Plant response rating, Velvetleaf: 30
[2]; [19]
  Plant response rating, Velvetleaf: 0
[2]; [20]
  Plant response rating, Velvetleaf: 0
[2]; [21]
  Plant response rating, Velvetleaf: 0
[2]; [22]
  Plant response rating, Velvetleaf: 0
[3]; [15]
  Plant response rating, Kochia: 0
[3]; [16]
  Plant response rating, Kochia: 0
[3]; [17]
  Plant response rating, Kochia: 0
[3]; [18]
  Plant response rating, Kochia: 0
[3]; [19]
  Plant response rating, Kochia: 0
[3]; [20]
  Plant response rating, Kochia: 0
[3]; [21]
  Plant response rating, Kochia: 0
[3]; [22]
  Plant response rating, Kochia: 0
[4]; [15]
  Plant response rating, Johnsongrass: 100
[4]; [16]
  Plant response rating, Johnsongrass: 100
[4]; [17]
  Plant response rating, Johnsongrass: 100
[4]; [18]
  Plant response rating, Johnsongrass: 100
[4]; [19]
  Plant response rating, Johnsongrass: 70
[4]; [20]
  Plant response rating, Johnsongrass: 95
[4]; [21]
  Plant response rating, Johnsongrass: 100
[4]; [22]
  Plant response rating, Johnsongrass: 100
[5]; [15]
  Plant response rating, Soybean: 0
[5]; [16]
  Plant response rating, Soybean: 0
[5]; [17]
  Plant response rating, Soybean: 0
[5]; [18]
  Plant response rating, Soybean: 0
[5]; [19]
  Plant response rating, Soybean: 0
[5]; [20]
  Plant response rating, Soybean: 0
[5]; [21]
  Plant response rating, Soybean: 0
[5]; [22]
  Plant response rating, Soybean: 0
[6]; [15]
  Plant response rating, Ryegrass, Italian: 100
[6]; [16]
  Plant response rating, Ryegrass, Italian: 100
[6]; [17]
  Plant response rating, Ryegrass, Italian: 100
[6]; [18]
  Plant response rating, Ryegrass, Italian: 100
[6]; [19]
  Plant response rating, Ryegrass, Italian: 90
[6]; [20]
  Plant response rating, Ryegrass, Italian: 95
[6]; [21]
  Plant response rating, Ryegrass, Italian: 100
[6]; [22]
  Plant response rating, Ryegrass, Italian: 100
[7]; [15]
  Plant response rating, Morningglory: 0
[7]; [16]
  Plant response rating, Morningglory: 0
[7]; [17]
  Plant response rating, Morningglory: 0
[7]; [18]
  Plant response rating, Morningglory: 40
[7]; [19]
  Plant response rating, Morningglory: 0
[7]; [20]
  Plant response rating, Morningglory: 0
[7]; [21]
  Plant response rating, Morningglory: 0
[7]; [22]
  Plant response rating, Morningglory: 0
[8]; [15]
  Plant response rating, Bermudagrass: 100
[8]; [16]
  Plant response rating, Bermudagrass: 100
[8]; [17]
  Plant response rating, Bermudagrass: 100
[8]; [18]
  Plant response rating, Bermudagrass: 100
[8]; [19]
  Plant response rating, Bermudagrass: 100
[8]; [20]
  Plant response rating, Bermudagrass: 100
[8]; [21]
  Plant response rating, Bermudagrass: 100
[8]; [22]
  Plant response rating, Bermudagrass: 100
[9]; 16 g ai/ha, scale 0 to 100 (0 no effect, 100 complete control)
  Plant response rating, Galium: 0
[9]; 31 g ai/ha, 0 to 100 scale, 0 no effect, 100 complete control
  Plant response rating, Galium: 0
[9]; 62 g ai/ha, scale 0 to 100
  Plant response rating, Galium: 0
[9]; 125 g ai/ha, scale 0 to 100
  Plant response rating, Galium: 0
[10]; [15]
  Plant response rating, Lambsquarters: 0
[10]; [16]
  Plant response rating, Lambsquarters: 0
[10]; [17]
  Plant response rating, Lambsquarters: 0
[10]; [18]
  Plant response rating, Lambsquarters: 40
[10]; [19]
  Plant response rating, Lambsquarters: 0
[10]; [20]
  Plant response rating, Lambsquarters: 0
[10]; [22]
  Plant response rating, Lambsquarters: 0
[11]; 16 g ai/ha, scale 0 to 100
  Plant response rating, Pigweed: 0
[11]; 31 g ai/ha, scale 0 to 100, 0 no effect, 100 complete control
  Plant response rating, Pigweed: 0
[11]; 62 g ai/ha, scale 0 to 100
  Plant response rating, Pigweed: 5
[11]; 125 g ai/ha, scale 0 to 100
  Plant response rating, Pigweed: 50
[12]; [15]
  Plant response rating, Crabgrass, Large: 100
[12]; [16]
  Plant response rating, Crabgrass, Large: 100
[12]; [17]
  Plant response rating, Crabgrass, Large: 100
[12]; [18]
  Plant response rating, Crabgrass, Large: 100
[12]; [19]
  Plant response rating, Crabgrass, Large: 100
[12]; [20]
  Plant response rating, Crabgrass, Large: 100
[12]; [21]
  Plant response rating, Crabgrass, Large: 100
[12]; [22]
  Plant response rating, Crabgrass, Large: 100
[13]; [15]
  Plant response rating, Goosegrass: 100
[13]; [16]
  Plant response rating, Goosegrass: 100
[13]; [17]
  Plant response rating, Goosegrass: 100
[13]; [18]
  Plant response rating, Goosegrass: 100
[13]; [19]
  Plant response rating, Goosegrass: 40
[13]; [20]
  Plant response rating, Goosegrass: 98
[13]; [21]
  Plant response rating, Goosegrass: 100
[13]; [22]
  Plant response rating, Goosegrass: 100
[14]; [15]
  Plant response rating, Foxtail, Giant: 100
[14]; [16]
  Plant response rating, Foxtail, Giant: 100
[14]; [17]
  Plant response rating, Foxtail, Giant: 100
[14]; [18]
  Plant response rating, Foxtail, Giant: 100
[14]; [19]
  Plant response rating, Foxtail, Giant: 100
[14]; [20]
  Plant response rating, Foxtail, Giant: 100
[14]; [21]
  Plant response rating, Foxtail, Giant: 100
[14]; [22]
  Plant response rating, Foxtail, Giant: 100

From US20100267561A1, “HERBICIDAL PYRIDAZINONE DERIVATIVES” (priority 2007, published 2010)
